This note sets out measurements from patent publication US6251897A, “6-phenyltetrahydro-1,3-oxazin-2-one derivative and pharmaceutical composition containing the same” (Nikken Chemicals Co., LTD, priority 1996, dated 2001).

For one assay, the system named is Type IV PDE. Kind of assay: PDE inhibitory activity, type IV isozyme (3H-cAMP hydrolysis). Format: biochemical. The note with it: partially purified from rat neutrophils, 30° C., 30 minutes. A digest of the protocol: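 Enzyme partially purified from rat neutrophils by ion-exchange chromatography. Reaction in 50 mM Tris-HCl with 5 mM MgCl2, 30 min at 30° C, stopped by boiling; product converted by 5'-nucleotidase and 3H-adenosine counted after ion-exchange separation. IC50 given in M.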

The next assay has as its system rat neutrophils. As to the kind of experiment: Inhibition of super oxide anion release from rat neutrophils (A23187-stimulated chemiluminescence). It is filed as cell-based, rat (Wister). The note with it: Neutrophil, stimulated with 0.3 μM calcium ionophore A23187, read-out: Inhibitory action of super oxide anion release from rat neutrophils IC50. The method, then: The release of super oxide anions was measured so as to study the inhibitory effects of the compound on inflammatory leukocytes, that is, neutrophils.
Blood sample was obtained from Wister rats anesthetized with ether. It was superposed on a blood cell separation solution (Polymorphoprep 1.113, made by Naicomet Co. (phonetic)) and the neutrophils were separated by centrifugation. The neutrophils were resuspended in a Hank's balanced salt solution at a concentration of 0.5×10^4 cell/ml. 0.1 mM of Lusigenin and the test substance dissolved in DMSO were added to 2 ml of the cell-suspension. The chemiluminescence generated by stimulation of 0.3 μM calcium ionophore A23187 was measured by a chemiluminescence reader so as to evaluate the release of super oxide anions.

Assay [1] concerns antigen-induced bronchospasm in guinea pig. As to the kind of experiment: Inhibitory effect on antigen-induced bronchospasm (Konzett-Roessler, ovalbumin-sensitized). Format: in vivo, guinea pig (Hartley male). The note with it: Cavia porcellus; intravenous, 10 minutes before antigen (0.2 mg/kg OA i.v.); read-out: Action for suppressing antigen-induced bronchospasms ED50. The method, then:
A Hartley male guinea pig was sensitized by intramuscular administration of […] Ovalbumin (OA) on first day and fourth day, and used after 24th day. A trachial canula was introduced in the guinea pig anesthetized with pentobarbital and artificial ventilation was performed 25 to 29 days after the first sensitization. The overflow of the ventilation was measured by the Konzett-Roessler method while 0.2 mg/kg OA were administered intravenously. The test compound was dissolved in polyethylene glycol 400 and intravenously administered 10 minutes before administration of the antigens.

Structures are written as SMILES.

Regarding `COc1ccc(C2CCNC(=O)O2)cc1OC` (stereo not drawn) [Compound No. 1, 6-(3,4-dimethoxyphenyl)-3,4,5,6-tetrahydro-2H-1,3-oxazin-2-one], the half-maximal inhibitory concentration (IC50) in the assay on Type IV PDE is 10000 nM; in the assay on rat neutrophils, 8800 nM.
In the case of `COc1ccc(C2CCNC(=O)O2)cc1OC1CCCC1` (stereo not drawn) [Compound No. 2, 6-(3-cyclopentyloxy-4-methoxyphenyl)-3,4,5,6-tetrahydro-2H-1,3-oxazin-2-one], the values for the IC50 in the assay with Type IV PDE and with rat neutrophils were 1200 nM and 550 nM, respectively. Further, the ED50 in assay [1] came to 0.23 mg/kg.
As to `COc1ccc(C2(C)CCNC(=O)O2)cc1OC` (stereo not drawn) [Compound No. 5, 6-(3,4-dimethoxyphenyl)-6-methyl-3,4,5,6-tetrahydro-2H-1,3-oxazin-2-one], the concentration for half-maximal inhibition (IC50) amounted to 6800 nM in the assay on Type IV PDE and 2400 nM with rat neutrophils. Besides, the ED50 in assay [1] was 0.3 mg/kg.
On to `COc1ccc(C2CCN(C)C(=O)O2)cc1OC` (stereo not drawn) [Compound No. 8, 6-(3,4-dimethoxyphenyl)-3-methyl-3,4,5,6-tetrahydro-2H-1,3-oxazin-2-one], for which the IC50 in the assay on Type IV PDE was 19000 nM; in the assay with rat neutrophils, 4100 nM.
As to `COc1ccc(C2CCN(Cc3ccccc3)C(=O)O2)cc1OC` (stereo not drawn) [Compound No. 9, 3-benzyl-6-(3 4-dimethoxyphenyl)-3,4,5,6-tetrahydro-2H-1,3-oxazin-2-one], the IC50 with Type IV PDE came out at 22000 nM; in the assay on rat neutrophils it was 2300 nM.
On to `COc1ccc(C2CCN(C)C(=O)O2)cc1OC1CCCC1` (stereo not drawn) [Compound No. 10, 6-(3-Cyclopentyloxy-4-methoxyphenyl)-3-methyl-3,4,5,6-tetrahydro-2H-1,3-oxazin-2-one], for which the IC50 in the assay with Type IV PDE is 1300 nM; in the assay on rat neutrophils, 90 nM. Moreover, the ED50 in assay [1] is 0.95 mg/kg.
For the compound `COc1ccc(C2CCN(Cc3ccc(Br)cc3)C(=O)O2)cc1OC1CCCC1` (stereo not drawn) [Compound No. 11, 3-(4-bromobenzyl)-6-(3-cyclopentyloxy-4-methoxyphenyl)-3,4,5,6-tetrahydro-2H-1,3-oxazin-2-one], the IC50 came out at 1400 nM in the assay on Type IV PDE and 50 nM with rat neutrophils. Further, the ED50 in assay [1] was 3.1 mg/kg.
As to `COc1ccc(C2CCN(C)C(=O)O2)cc1OCC1CC1` (stereo not drawn) [Compound No. 49, 6-(3-cyclopropylmethyloxy-4-methoxyphenyl)-3-methyl-3,4 5,6-tetrahydro-2H-1,3-oxazin-2-one], half-maximal inhibition with Type IV PDE (IC50) was put at 2000 nM. Moreover, in assay [1], the ED50 was determined as 3.1 mg/kg.
The compound `COc1ccc(C2(C)CCNC(=O)O2)cc1OCC1CC1` (stereo not drawn) [Compound No. 50, 6-(3-cyclopropylmethyloxy-4-methoxyphenyl)-6-methyl-3,4,5,6-tetrahydro-2H-1,3-oxazin-2-one] yielded an IC50 in the assay on Type IV PDE of 1100 nM. Further, the ED50 in assay [1] came out at 0.3 mg/kg.
As for `COc1ccc(C2(C)CCN(C)C(=O)O2)cc1OCC1CC1` (stereo not drawn) [Compound No. 51, 6-(3-cyclopropylmethyloxy-4-methoxyphenyl)-3,6-dimethyl-3,4,5,6-tetrahydro-2H-1,3-oxazin-2-one], the concentration for half-maximal inhibition (IC50) with Type IV PDE was 1900 nM. Also, the ED50 in assay [1] is 2.23 mg/kg.
For `COc1ccc(C2CCNC(=O)O2)cc1OCC1(c2ccccc2)CC1` (stereo not drawn) [Compound No. 56, 6-[4-methoxy-3-[(1-phenylcyclopropyl)methyloxy]phenyl]-3,4,5,6-tetrahydro-2H-1,3-oxazin-2-one] the same measures were 940 nM and 1.72 mg/kg.
The compound `COc1ccc(C2CCN(C)C(=O)O2)cc1OCC1(c2ccccc2)CC1` (stereo not drawn) [Compound No. 57, 6-[4-methoxy-3-[(1-phenylcyclopropyl)methyloxy]phenyl]-3-methyl-3,4,5,6-tetrahydro-2H-1,3-oxazin-2-one] returned an IC50 with Type IV PDE of 1300 nM. In addition, in assay [1], the median effective dose (ED50) was determined as 15.9 mg/kg.
`COc1ccc(C2CCNC(=O)O2)cc1OCC1CCC1` (stereo not drawn) [Compound No. 61, 6-(3-cyclobutylmethyloxy-4-methoxyphenyl)-3,4,5,6-tetrahydro-2H-1,3-oxazin-2-one] gave a 50% inhibitory concentration (IC50) in the assay with Type IV PDE of 3200 nM. Besides, the ED50 in assay [1] is 1.84 mg/kg.
`COc1ccc(C2CCNC(=O)O2)cc1OCC(C)C` (stereo not drawn) [Compound No. 65, 6-[4-methoxy-3-(2-methylpropoxy)phenyl]-3,4,5,6-tetrahydro-2H-1,3-oxazin-2-one] showed an IC50 in the assay on Type IV PDE of 2200 nM. Besides, in assay [1], the 50% effective dose (ED50) amounted to 0.22 mg/kg.
In the assay on Type IV PDE, `COc1ccc(C2CCN(C)C(=O)O2)cc1OCC(C)C` (stereo not drawn) [Compound No. 66, 6-[4-methoxy-3-(2-methylpropoxy)phenyl]-3-methyl-3,4,5,6-tetrahydro-2H-1,3-oxazin-2-one] came in with a concentration for half-maximal inhibition (IC50) of 3800 nM. Further, the ED50 in assay [1] stood at 0.051 mg/kg.
Regarding `CCN1CCC(c2ccc(OC)c(OC3Cc4ccccc4C3)c2)OC1=O` (stereo not drawn) [Compound No. 71, 3-ethyl-6-[3-(2-indanyloxy)-4-methoxyphenyl]-3,4,5,6-tetrahydro-2H-1,3-oxazin-2-one], the 50% inhibitory concentration (IC50) in the assay on Type IV PDE came to 310 nM. The median effective dose (ED50) in assay [1] worked out at 2.67 mg/kg.
For `COc1ccc(C2CCNC(=O)O2)cc1OCC1CCCC1` (stereo not drawn) [Compound No. 76, 6-(3-cyclopentylmethyloxy-4-methoxyphenyl)-3,4,5,6-tetrahydro-2H-1,3-oxazin-2-one] the same measures were 2900 nM and 0.27 mg/kg.
`COc1ccc(C2(C)CCNC(=O)O2)cc1OCC(C)C` (stereo not drawn) [Compound No. 81, 6-[4-methoxy-3-(2-methylpropoxy)phenyl]-6-methyl-3,4,5,6-tetrahydro-2H-1,3-oxazin-2-one] had an IC50 in the assay on Type IV PDE of 1300 nM. For the same compound, the ED50 in assay [1] is 0.028 mg/kg.
For `COc1ccc(C2(C)CCN(C)C(=O)O2)cc1OCC(C)C` (stereo not drawn) [Compound No. 82, 3,6-dimethyl-6-[4-methoxy-3-(2-methylpropoxy)phenyl]-3,4,5,6-tetrahydro-2H-1,3-oxazin-2-one] the same measures were 1900 nM and 0.045 mg/kg.
